Assays:
[1] = molecular target: Mas-related G-protein coupled receptor member X1 (Homo sapiens) (UniProt Q96LB2); assay: Activation of human MrgX1 receptor expressed in NIH/3T3 cells incubated for 5 days by beta-galactosidase reporter gene assay relative to Bam22; format: cell-based; conditions: NIH3T3
[2] = molecular target: T1, Mas-related G-protein coupled receptor member X2 (Homo sapiens) (UniProt Q96LB1); assay: Activation of human MrgX2 receptor expressed in NIH/3T3 cells incubated for 5 days by beta-galactosidase reporter gene assay relative to STIA; format: cell-based; conditions: NIH3T3
T1 sequence (whole entry): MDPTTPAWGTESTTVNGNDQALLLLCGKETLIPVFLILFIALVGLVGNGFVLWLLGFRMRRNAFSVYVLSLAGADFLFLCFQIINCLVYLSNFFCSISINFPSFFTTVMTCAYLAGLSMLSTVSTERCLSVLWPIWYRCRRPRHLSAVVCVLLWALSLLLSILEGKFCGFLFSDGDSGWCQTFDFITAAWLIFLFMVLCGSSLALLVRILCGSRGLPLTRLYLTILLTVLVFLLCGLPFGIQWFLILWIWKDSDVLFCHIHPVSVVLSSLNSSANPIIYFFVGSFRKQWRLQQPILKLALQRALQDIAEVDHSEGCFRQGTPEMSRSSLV

Chain of Mas-related G-protein coupled receptor member X1 (Homo sapiens) (Q96LB2 whole entry): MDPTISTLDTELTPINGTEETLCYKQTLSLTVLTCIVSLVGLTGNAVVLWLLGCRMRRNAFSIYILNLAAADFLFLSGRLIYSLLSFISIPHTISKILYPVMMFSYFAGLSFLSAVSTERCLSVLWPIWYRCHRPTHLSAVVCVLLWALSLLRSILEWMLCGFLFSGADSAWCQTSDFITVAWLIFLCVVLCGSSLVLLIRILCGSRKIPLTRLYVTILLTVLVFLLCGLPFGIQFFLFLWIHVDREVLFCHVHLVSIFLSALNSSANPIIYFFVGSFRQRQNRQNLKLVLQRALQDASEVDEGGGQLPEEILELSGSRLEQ

Compound | Efficacy [1] [%] | Efficacy [2] [%]
N=C(N)NCCC[C@H](C(N)=O)n1c(-c2cccc(Oc3ccccc3)c2)nc2cc(C(=O)N3CCOCC3)ccc21 | 203 | 6
N=C(N)NCCC[C@@H](C(N)=O)n1c(-c2cccc(Oc3ccccc3)c2)nc2cc(C(=O)NCc3cccc(C(F)(F)F)c3)ccc21 | 95 | 21
N=C(N)NCCC[C@H](C(N)=O)n1c(-c2cccc(Oc3ccccc3)c2)nc2cc(C(=O)Nc3ccc4cn[nH]c4c3)ccc21 | 221 | 2

Reference: ChEMBL document CHEMBL3714739, “Compounds for the treatment of pain and screening methods therefor” (2008)
